Literature values in US20200357489A1, “DEEP LEARNING-BASED QUICK AND PRECISE HIGH-THROUGHPUT DRUG SCREENING SYSTEM” (Shanghai Tongji Hospital, priority 2018, published 2020).
Read-outs that look alike come from different tables or passages of the source.

| SMILES | efficacy classification (HepG2 cells; 5 μg/ml Cur) | efficacy classification (HepG2 cells; 10 μg/ml Cur) | efficacy classification (HepG2 cells; 20 μg/ml Cur) | efficacy classification (A549 cells; 50 μg/ml VP16) | efficacy classification (A549 cells; 100 μg/ml VP16) | efficacy classification (A549 cells; 200 μg/ml VP16) |
| --- | --- | --- | --- | --- | --- | --- |
| COc1cc(/C=C/C(=O)CC(=O)/C=C/c2ccc(O)c(OC)c2)ccc1O [Cur, curcumin] | Low effcacy | Moderate | High efficacy | – | – | – |
| COc1cc([C@@H]2c3cc4c(cc3[C@@H](O[C@@H]3O[C@@H]5CO[C@@H](C)O[C@H]5[C@H](O)[C@H]3O)[C@H]3COC(=O)[C@H]23)OCO4)cc(OC)c1O [VP16, etoposide] | – | – | – | Low effcacy | Moderate | High efficacy |
